From patent publication US20040063681A1, “Methods for using gold (III) complexes as anti-tumor and anti-HIV agents” (priority 2002, published 2004)

What was measured:
[1] = system: Human Nasopharyngeal Carcinoma (SUNE1); experiment: MTT cytotoxicity, SUNE1; assay type: cell-based; details: MTT, growth inhibition
Description: (§1) Human promyelocytic leukemia (HL-60), human hepatocellular carcinoma (HepG2), Human cervix epitheloid carcinoma cells (HeLa) and human oral epidermoid carcinoma cells (KB-3-1), were obtained from American Type Culture Collection (ATCC) (Rockville, Md.). […] Cell culture flasks and 96 well microtitre plates were from Nalge Nunc hit. Culture medium, other medium constituents and phosphate buffered saline (PBS) were obtained from Gibco BRL (Rockville, Md.). Cell Proliferation Kit I (MTT) was purchased from Roche (Mannheim, Germany).

[2] = system: Human Promyelocytic Leukemia (HL-60); experiment: MTT cytotoxicity, HL-60; assay type: cell-based; details: growth inhibition
Description: (§2) Human promyelocytic leukemia (HL-60), human hepatocellular carcinoma (HepG2), Human cervix epitheloid carcinoma cells (HeLa) and human oral epidermoid carcinoma cells (KB-3-1), were obtained from American Type Culture Collection (ATCC) (Rockville, Md.). The multi-drug-resistant variant KB-V1 cell line was obtained by stepwise selections for vinblastine resistance as described by Shen et al., J. Biol. Chem. 261:7762-7770 (1986)], and was generously provided by Dr Michael Gottesman (NIH, Bethesda, Md.). Human nasopharyngeal carcinoma cells (SUNE1 and its cisplatin resistance variant, CNE1) were derived from poorly differentiated NPC in Chinese patients as described by Gu et al., Chin. J. Cancer 2:270-272 (1983), and were generously provided by Dr S. W. Tsao (The University of Hong Kong, Hong Kong, PRC). Cell culture flasks and 96 well microtitre plates were from Nalge Nunc hit. Culture medium, other medium constituents and phosphate buffered saline (PBS) were obtained from Gibco BRL (Rockville, Md.). Cell Proliferation Kit I (MTT) was purchased from Roche (Mannheim, Germany).
(§3) The anti-cancer activities of the gold(III) porphyrin complexes were evaluated toward some established human cancer cell lines: promyelocytic leukemia (HL-60), hepatocellular carcinoma (HepG2), cervix epitheloid carcinoma (HeLa), epidermoid carcinoma (KB-3-1) and its multi-drug resistant variant (KB-V1), nasopharyngeal carcinoma (SUNE1) and its cisplatin-resistant variant (CNE1). The experiments were carried out by following the MTT procedure (see Mosmann et al., J. Immunol. Methods 65:55-63 (1983). The IC50 values of the gold(III) porphyrin complexes together with that of cisplatin, and KAuCl4 are provided in Table 4a; and the IC50 values of the gold(III) Schiff-base and bis(pyridyl)carboxamide complexes are shown in Table 4b. The cytotoxicity profiles of some selected gold(III) porphyrin complexes toward SUNE1 and its cisplatin-resistant variant CNE1 are also shown in FIG. 7.

[3] = system: Human Oral Epidermoid Carcinoma (multi-drug resistance, KB-V-1); experiment: MTT cytotoxicity, KB-V-1; assay type: cell-based; details: MTT, growth inhibition, multi-drug resistant
Description: as §2
The anti-cancer activities of the gold(III) porphyrin complexes were evaluated toward some established human cancer cell lines: promyelocytic leukemia (HL-60), hepatocellular carcinoma (HepG2), cervix epitheloid carcinoma (HeLa), epidermoid carcinoma (KB-3-1) and its multi-drug resistant variant (KB-V1), nasopharyngeal carcinoma (SUNE1) and its cisplatin-resistant variant (CNE1).

[4] = system: Human Hepatocellular Carcinoma (HepG2); experiment: MTT cytotoxicity, HepG2; assay type: cell-based; details: growth inhibition
Description: as §2, §3

[5] = system: Human Nasopharyngeal Carcinoma (cisplatin resistance, CNE1); experiment: MTT cytotoxicity, CNE1; assay type: cell-based; details: MTT, growth inhibition, cisplatin resistant
Description: as §1

[6] = system: Human Oral Epidermoid Carcinoma (KB-3-1); experiment: MTT cytotoxicity, KB-3-1; assay type: cell-based; details: MTT, growth inhibition
Description: as §1

[7] = system: Human Cervix Epitheloid Carcinoma (HeLa); experiment: MTT cytotoxicity, HeLa; assay type: cell-based; details: MTT, growth inhibition
Description: as §1

[8] = molecular target: T1, HIV-1 reverse transcriptase (Human immunodeficiency virus type 1 group M subtype B, UniProt P04585); experiment: HIV-1 reverse transcriptase activity, ELISA method; assay type: biochemical; details: for HIV-1 RT inhibition: drug concentration fixed at 6 μM; for HIV-1 RT inhibition activity compared with the corresponding metal complex (1j, 1k): free-base porphyrins
T1 construct: treatment of HIV-1 RT in Lysis buffer (2 ng, 128.7 μL) with Complex 1j
Procedure: HIV-1 reverse transcriptase activities were measured by an ELISA method (see Eberle et al, J. Virol. Methods, 40:347-356 (1992) performed by incubating the enzyme with digoxigenin-labeled deoxyuridin-5′-triphosphate (dUTP) and the biotin-labeled analogue during reverse transcription starting from the template/primer hybrid poly(A)•oligo(dT)15. After reverse transcription, the newly synthesized DNA was immobilized onto streptavidin-coated ELISA wells, and the incorporation of the dioxigenin-labeled dUTP was assayed by chemiluminescence method. For example, treatment of HIV-1 RT in Lysis buffer (2 ng, 128.7 μL) with Complex 1j (1.3 μL of […] stock solution) dissolved in TBS at 37° C. produced significant RT activity inhibition (˜95%) after 30 min incubation.

SMILES | IC50 [1] | IC50 [2] | IC50 [4] | IC50 [5] | IC50 [6] | IC50 [7] | HIV-1 RT inhibition [8] | HIV-1 RT inhibition activity compared with the corresponding metal complex (1j, 1k) [8] | other results
N.N.[Cl][Pt][Cl] [Pt(NH3)2Cl2, reference compound] | 12.6 µM | 16.8 µM | 13.5 µM | 40.8 µM | 13.2 µM | 11.2 µM | – | – | IC50 [3]: 10.2 µM
[Au+].[Cl-].c1ccc(P(c2ccccc2)c2ccccc2)cc1 [[(Ph3P)Au^ICl]] | – | – | – | – | – | – | 43% | – | –
C[n+]1ccc(-c2c3nc(c(-c4cc[n+](C)cc4)c4ccc([nH]4)c(-c4cc[n+](C)cc4)c4nc(c(-c5cc[n+](C)cc5)c5ccc2[nH]5)C=C4)C=C3)cc1 [[H2TMPyP]^4+, Meso-tetrakis(N-methylpyridinium-4-yl)porphyrin] | – | – | – | – | – | – | – | substantially lower HIV-1 RT inhibition activities | –
O=S(=O)(O)c1ccc(-c2c3nc(c(-c4ccc(S(=O)(=O)O)cc4)c4ccc([nH]4)c(-c4ccc(S(=O)(=O)O)cc4)c4nc(c(-c5ccc(S(=O)(=O)O)cc5)c5ccc2[nH]5)C=C4)C=C3)cc1 [[H2TPPS]^4−, meso-tetrakis(4-sulfonatophenyl)porphyrin] | – | – | – | – | – | – | – | substantially lower HIV-1 RT inhibition activities | –
C[n+]1ccc(-c2c3nc(c(-c4cc[n+](C)cc4)c4ccc([nH]4)c(-c4cc[n+](C)cc4)c4nc(c(-c5cc[n+](C)cc5)c5ccc2[nH]5)C=C4)C=C3)cc1.[Cl-].[Cl-].[Cl-].[Cl-].[Zn] [[Zn^II(TMPyP)]Cl4] | – | – | – | – | – | – | 32% | – | –
CCCC[N+](CCCC)(CCCC)CCCC.[Au+3].[Cl-].[Cl-].[Cl-].[Cl-] [nBu4N[AuCl4], Tetrabutylammonium tetrachloroaurate, reference compound] | 9.94 µM | 9.71 µM | 11.2 µM | 11.5 µM | 10.3 µM | 8.41 µM | – | – | –
